In ChEMBL document CHEMBL3808391, “Evolution of a New Class of VEGFR-2 Inhibitors from Scaffold Morphing and Redesign” (ACS Med Chem Lett, 2016):

Target: Vascular endothelial growth factor receptor 2 (Homo sapiens, UniProt P35968)
Assay: Inhibition of KDR (unknown origin)

Chain of Vascular endothelial growth factor receptor 2 (P35968 whole entry): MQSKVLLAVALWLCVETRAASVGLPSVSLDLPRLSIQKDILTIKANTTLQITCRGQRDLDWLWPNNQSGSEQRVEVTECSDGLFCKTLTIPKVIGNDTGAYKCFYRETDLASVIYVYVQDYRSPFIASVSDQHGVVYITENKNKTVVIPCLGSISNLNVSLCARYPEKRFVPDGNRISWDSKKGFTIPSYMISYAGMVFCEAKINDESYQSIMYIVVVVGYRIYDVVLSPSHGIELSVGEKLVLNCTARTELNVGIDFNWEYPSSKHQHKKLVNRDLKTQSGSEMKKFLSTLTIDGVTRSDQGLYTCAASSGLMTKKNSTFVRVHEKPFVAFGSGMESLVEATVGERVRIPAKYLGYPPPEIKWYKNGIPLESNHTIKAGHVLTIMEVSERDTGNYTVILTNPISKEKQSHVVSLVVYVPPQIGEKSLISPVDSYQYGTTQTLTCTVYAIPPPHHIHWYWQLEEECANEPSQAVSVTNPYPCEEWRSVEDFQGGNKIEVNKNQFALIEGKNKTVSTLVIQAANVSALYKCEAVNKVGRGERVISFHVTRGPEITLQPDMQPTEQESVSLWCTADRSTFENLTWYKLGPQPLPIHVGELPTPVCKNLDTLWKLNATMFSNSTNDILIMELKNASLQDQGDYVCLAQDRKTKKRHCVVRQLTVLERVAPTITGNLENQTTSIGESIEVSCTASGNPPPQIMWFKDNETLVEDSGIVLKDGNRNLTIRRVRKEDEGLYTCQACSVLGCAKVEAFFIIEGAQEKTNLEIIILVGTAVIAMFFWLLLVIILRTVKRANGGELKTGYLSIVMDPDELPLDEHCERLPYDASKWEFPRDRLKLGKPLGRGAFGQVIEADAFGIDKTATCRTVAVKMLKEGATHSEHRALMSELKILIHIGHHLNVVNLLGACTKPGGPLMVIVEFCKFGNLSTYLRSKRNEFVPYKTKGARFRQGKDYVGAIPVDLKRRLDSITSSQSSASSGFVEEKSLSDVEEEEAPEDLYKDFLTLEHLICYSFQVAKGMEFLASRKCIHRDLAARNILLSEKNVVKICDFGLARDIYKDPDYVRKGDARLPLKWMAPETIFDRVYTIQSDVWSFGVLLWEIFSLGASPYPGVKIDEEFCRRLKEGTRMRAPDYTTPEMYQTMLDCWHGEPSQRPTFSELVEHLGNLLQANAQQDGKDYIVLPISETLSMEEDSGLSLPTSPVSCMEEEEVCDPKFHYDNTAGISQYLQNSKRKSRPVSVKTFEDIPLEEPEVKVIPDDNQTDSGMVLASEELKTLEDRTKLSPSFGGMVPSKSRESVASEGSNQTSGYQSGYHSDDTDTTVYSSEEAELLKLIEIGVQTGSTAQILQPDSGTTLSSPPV

| IC50 [µM] | SMILES |
| --- | --- |
| > 10 | Nc1cc(-c2ccc(NC(=O)Nc3cccc(C(F)(F)F)c3)cc2)on1 |
| > 10 | CC(C)(C)c1cc(NC(=O)Nc2ccc(-c3cc(N)no3)cc2)no1 |
